What was measured:
[1] = tested on: hepatocellular carcinoma HepG2 cell line; assay: MTT cytotoxicity assay, HepG2; type: cell-based, human; details: 24 h treatment, mean ± SE
Protocol: All the newly synthesized analogs were evaluated for their in vitro cytotoxicity against the hepatocellular carcinoma HepG2 cell line. Podo was utilized as a reference control in the current study. […] The N-phenyl triazinone derivative 9 was further investigated for its cytotoxic effects against normal liver cell line HL-7702.
MTT colorimetric assay was carried out to investigate the impact of the newly synthesized compounds 2–11 on hepatocellular carcinoma (HepG2) and normal liver cell line (HL-7702) cell lines. See Section 3.3.1 in Supplementary Material.
3.3.1. Cytotoxic activity evaluation
To measure the cytotoxic activity of the synthesized derivatives 2a-11 in hepatocel-lular carcinoma (HepG2) cell line (ATCC Cat No. HB-8065) as well as normal human liver cell line HL-7702 (ATCC Cat. No. 77402), cell viability assay was assessed using MTT assay method. Cells at density of 1 x 104 were seeded in a 96-well plate at 37 °C for 24 h under 5% CO2. After incubation, the cells were treated with different concentrations of the test compounds 2a-11 and incubated for 24 h, then 20 μl of MTT solution at 5 mg/mL was applied and incubated for 4 h at 37 °C. Dimethyl sulphoxide (DMSO) in volume of 100 µl was added to each well to dissolve the purple formazan that had formed. The color inten-sity of the formazan product, which represents the growth condition of the cells, is quan-tified by using an ELISA plate reader (EXL 800, USA) at 570 nm absorbance. The experi-mental conditions were carried out with at least three replicates, and the experiments were repeated at least three times.
3.3.2. Tubulin inhibitions Assay
Compounds 9, 10 and 11 were evaluated for their tubulin inhibitory activity levels according to the manufacturer’s instructions using # abcam Human Beta-tubulin simplestep […]
3.3.3. Cell cycle analysis of compound 9
Cell cycle analysis in HepG2 cells was investigated using fluorescent Annexin V-FITC/ PI detection kit (BioVision EZCellTM Cell Cycle Analysis Kit Catalog #K920) by flow cytometry assay. HepG2 cells at a density of 2 × 10^5 per well were harvested and washed twice in PBS. After that, the cells were incubated at 37 °C and 5% CO2. […] Afterward, medium was stained with DNA flu-orochrome PI for 15 min at 37 °C. The samples were immediately analyzed using Facs Calibur flow cytometer (Becton and Dickinson, Heidelberg, Germany).
3.3.4. Apoptosis assay for compound 9
Apoptosis in HepG2 cells was investigated using fluorescent Annexin V-FITC/ PI de-tection kit (BioVision Annexin V-FITC Apoptosis Detection Kit, Catalog #: K101) by flow cy-tometry assay. HepG2 cells at a density of 2 × 10^5 per well were treated with compound 9 at its IC50 (μM) for 48 h, then the cells were harvested and stained with Annexin V-FITC/ PI dye for 15 min in the dark at 37 °C. The samples were immediately analyzed using FACS Calibur flow cytometer (Becton and Dickinson, Heidelberg, Germany).
3.3.5. Measurement of mitochondrial membrane potential (MMP) for compound 9 MMP was measured by FACS analysis using abcam ab113852TMRE Mitochondrial Membrane Potential Assay Kit with DiOC2(3) staining using MitoProbe™ DiOC2(3) Assay Kit for Flow Cytometry (M34150). After treatment with compound 9 at its IC50 concentra-tion, cells were stained with DiOC2(3) dye for 30 min in the incubator, then harvested and washed with PBS. DiOC2(3)-stained cells were represented with Annexin binding buffer and incubated at 37 °C for 15 min. The samples were immediately analyzed using cell […]
3.3.6. Effect on p53, Bax and Bcl-2 p53, Bax and Bcl2 enzyme activities in HepG2 cells were detected in the presence of com-pound 9 at its IC50 concentration (μM). The levels of the tumor suppressor gene p53, apoptotic markers Bax as well as the anti-apoptotic marker Bcl-2 were assessed using p53 ELISA kit, Human Bax ELISA kit and Bcl-2 Elisa kit. […]

β-tubulin = assay: Tubulin polymerization inhibition (beta-tubulin ELISA in HepG2 cells); type: cell-based, human; details: HepG2 cells, each compound at its IC50 concentration (9 1.38, 10 2.52, 11 3.21, podo 2.08 μM), ELISA
Protocol: The selected candidates were tested at a concentration equal to their IC50 concentration dose value. […] See Section 3.3.2 in Supplementary Material. […] page 18: 3.3. Biological studies 3.3.1. Cytotoxic activity evaluation To measure the cytotoxic activity of the synthesized derivatives 2a-11 in hepatocel- lular carcinoma (HepG2) cell line (ATCC Cat No. HB-8065) as well as normal human liver cell line HL-7702 (ATCC Cat. No. 77402), cell viability assay was assessed using MTT assay method. Cells at density of 1 x 104 were seeded in a 96-well plate at 37 °C for 24 h under 5% CO2. After incubation, the cells were treated with different concentrations of the test compounds 2a-11 and incubated for 24 h, then 20 μl of MTT solution at 5 mg/mL was […] Dimethyl sulphoxide (DMSO) in volume of 100 μl was added to each well to dissolve the purple formazan that had formed. The color […] of the formazan product, which represents the growth condition of the cells, is quan- […] by using an ELISA plate reader (EXL 800, USA) at 570 nm absorbance. The experi- mental conditions were carried out with at least three replicates, and the experiments were repeated at least three times. 3.3.2. Tubulin inhibitions Assay […] according to the manufacturer's instructions using # abcam Human Beta-tubulin […] ELISA Kit ab245722. 3.3.3. Cell cycle analysis of compound 9 Cell cycle analysis in HepG2 cells was investigated using fluorescent Annexin V- FITC/ PI detection kit (BioVision EZCellTM Cell Cycle Analysis Kit Catalog #K920) by flow cytometry assay. […] twice in PBS. After that, the cells were incubated at 37 °C and 5% CO2. […] Apoptosis assay for compound 9 Apoptosis in HepG2 cells was investigated using fluorescent Annexin V-FITC/ PI de- tection kit (BioVision Annexin V-FITC Apoptosis Detection Kit, Catalog #: K101) by flow cy- tometry assay. […] The samples were immediately analyzed using FACS Calibur flow cytometer (Becton and Dickinson, Heidelberg, Germany). 3.3.5. Measurement of mitochondrial membrane potential (MMP) for compound 9 MMP was measured by FACS analysis using abcam ab113852TMRE Mitochondrial Membrane Potential Assay Kit with DiOC2(3) staining using MitoProbeTM DiOC2(3) Assay Kit for Flow Cytometry (M34150). After treatment with compound 9 at its IC50 concentra- tion, cells were stained with DiOC2(3) dye for 30 min in the incubator, then harvested and washed with PBS. […] The samples were immediately analyzed using cell Quest software. […] Effect on p53, Bax and Bcl-2 p53, Bax and Bcl2 enzyme activities in HepG2 cells were detected in the presence of com- pound 9 at its IC50 concentration (μM). The levels of the tumor suppressor gene p53, apoptotic markers Bax as well as the anti-apoptotic marker Bcl-2 were assessed using p53 ELISA kit, Human Bax ELISA kit and Bcl-2 Elisa kit. […]

Structure (SMILES) | IC50 ([1]; Homo sapiens, HepG2, 24 h) | melting point | IC50 [1] | β-tubulin polymerization inhibition percentage (β-tubulin)
COc1ccc(C(=O)N/C(=C\c2cc(OC)c(OC)c(OC)c2)C(=O)Nc2cccc(C)c2)cc1OC [Compound 4a, (Z)-3,4-Dimethoxy-N-(3-oxo-3-(M-tolylamino)-1-(3,4,5-Trimethoxyphenyl)prop-1-en-2-yl)benzamide] | 45.5 ± 2.89 µM | 248 to 250 °C |  | 
COc1ccc(C(=O)N/C(=C\c2cc(OC)c(OC)c(OC)c2)C(=O)NNC(=O)c2ccncc2)cc1OC [Compound 6, (Z)-N-(3-(2-Isonicotinoylhydrazinyl)-3-oxo-1-(3,4,5-Trimethoxyphenyl)prop-1-en-2-yl)-3,4-Dimethoxybenzamide] | < 10 µM | 248 to 250 °C | 8.74 ± 0.57 µM | 
COC(=O)/C(=C/c1cc(OC)c(OC)c(OC)c1)NC(=O)c1ccc(OC)c(OC)c1 [Compound 2a, (Z)-Methyl 2-(3,4-Dimethoxybenzamido)-3-(3,4,5-Trimethoxyphenyl)acrylate] | < 20 µM | 248 to 250 °C | 14.4 ± 0.82 µM | 
COc1ccc(NC(=O)/C(=C/c2cc(OC)c(OC)c(OC)c2)NC(=O)c2ccc(OC)c(OC)c2)cc1 [Compound 4c, (Z)-3,4-Dimethoxy-N-(3-(4-Methoxyphenylamino)-3-oxo-1-(3,4,5-Trimethoxyphenyl)prop-1-en-2-yl)benzamide] | 23.7 ± 1.37 µM | 248 to 250 °C |  | 
COc1ccc(C2=N/C(=C\c3cc(OC)c(OC)c(OC)c3)C(=O)N2c2ccc(O)cc2)cc1OC [Compound 7a, (Z)-2-(3,4-Dimethoxyphenyl)-1-(4-Hydroxyphenyl)-4-(3,4,5-Trimethoxybenzylidene)-1H-Imidazol-5(4H)-one] |  | 248 to 250 °C |  | 
COc1ccc(C(=O)N/C(=C\c2cc(OC)c(OC)c(OC)c2)C(=O)NC(C)C(=O)O)cc1OC (stereo not drawn) [Compound 3b, (Z)-2-(2-(3,4-Dimethoxybenzamido)-3-(3,4,5-Trimethoxyphenyl)acrylamido)propanoic Acid] | < 20 µM | 248 to 250 °C | 19.4 ± 1.43 µM | 
COc1ccc(C(=O)N/C(=C\c2cc(OC)c(OC)c(OC)c2)C(=O)NCC(=O)O)cc1OC [Compound 3a, (Z)-2-(2-(3,4-Dimethoxybenzamido)-3-(3,4,5-Trimethoxyphenyl)acrylamido)acetic Acid] | < 10 µM | 248 to 250 °C | 8.13 ± 0.54 µM | 
COc1ccc(C(=O)N/C(=C\c2cc(OC)c(OC)c(OC)c2)C(=O)NNc2ccccc2)cc1OC [Compound 5, (Z)-3,4-Dimethoxy-N-(3-oxo-3-(2-Phenylhydrazinyl)-1-(3,4,5-Trimethoxyphenyl)prop-1-en-2-yl)benzamide] | < 10 µM |  | 9.24 ± 0.52 µM | 
COc1ccc(C2=N/C(=C\c3cc(OC)c(OC)c(OC)c3)C(=O)NN2c2nc(-c3ccccc3)cs2)cc1OC [Compound 11, (Z)-3-(3,4-Dimethoxyphenyl)-2-(4-Phenylthiazol-2-yl)-5-(3,4,5-Trimethoxybenzylidene)-1,2-Dihydro-1,2,4-Triazin-6(5H)-one] | 3.21 ± 0.22 µM | 248 to 250 °C |  | 69.95%
COc1ccc(C2=N/C(=C\c3cc(OC)c(OC)c(OC)c3)C(=O)NN2C(=O)c2ccncc2)cc1OC [Compound 10, (Z)-3-(3,4-Dimethoxyphenyl)-2-Isonicotinoyl-5-(3,4,5-Trimethoxybenzylidene)-1,2-Dihydro-1,2,4-Triazin-6(5H)-one] | 2.52 ± 0.24 µM | 248 to 250 °C |  | 80.51%
COc1ccc(C(=O)N/C(=C\c2cc(OC)c(OC)c(OC)c2)C(=O)NNc2ccccc2)cc1OC (hydrate or solvate) [Compound 5, (Z)-3,4-Dimethoxy-N-(3-oxo-3-(2-Phenylhydrazinyl)-1-(3,4,5-Trimethoxyphenyl)prop-1-en-2-yl)benzamide] |  | 248 to 250 °C |  | 
COc1ccc(C2=N/C(=C\c3cc(OC)c(OC)c(OC)c3)C(=O)NN2C(N)=S)cc1OC [Compound 8, (Z)-3-(3,4-Dimethoxyphenyl)-6-oxo-5-(3,4,5-Trimethoxybenzylidene)-5,6-Dihydro-1,2,4-Triazine-2(1H)-Carbothioamide] |  | 248 to 250 °C |  | 
CCOC(=O)/C(=C/c1cc(OC)c(OC)c(OC)c1)NC(=O)c1ccc(OC)c(OC)c1 [Compound 2b, (Z)-Ethyl 2-(3,4-Dimethoxybenzamido)-3-(3,4,5-Trimethoxyphenyl)acrylate] | < 20 µM | 248 to 250 °C | 11.1 ± 0.77 µM | 
COc1ccc(N2C(=O)/C(=C/c3cc(OC)c(OC)c(OC)c3)N=C2c2ccc(OC)c(OC)c2)cc1 [Compound 7b, (Z)-2-(3,4-Dimethoxyphenyl)-1-(4-Methoxyphenyl)-4-(3,4,5-Trimethoxybenzylidene)-1H-Imidazol-5(4H)-one] | < 10 µM | 248 to 250 °C | 6.45 ± 0.24 µM | 
COc1ccc(C(=O)N/C(=C\c2cc(OC)c(OC)c(OC)c2)C(=O)Nc2ccc(O)cc2)cc1OC [Compound 4b, (Z)-N-(3-(4-Hydroxyphenylamino)-3-oxo-1-(3,4,5-Trimethoxyphenyl)prop-1-en-2-yl)-3,4-Dimethoxybenzamide] | < 20 µM | 248 to 250 °C | 17.7 ± 1.1 µM | 

Reference: publication PMC9322052, “Synthesis and Biological Activity Screening of Newly Synthesized Trimethoxyphenyl-Based Analogues as Potential Anticancer Agents” (Molecules, 2022)
